The source of these data is patent EP1261344B1, “USE OF INDOLOQUINOXALINES FOR THE TREATMENT OF MULTIPLE SKLEROSIS” (OxyPharma AB, priority 2000, dated 2001).

Where only a bound is given, the exact number is not on record here.

For series [1], the system named is EAE (experimental autoimmune encephalomyelitis) model. As to the kind of experiment: EAE (experimental autoimmune encephalomyelitis) rat model, clinical score. The class given is in vivo, Lewis rats. The note with it: for onset is delayed / recovery starts earlier: Figure 2, versus control.
The nature of series [2]: Acute toxicity in rat. The conditions noted are these: in vivo.
A short description of series [3]: Acute toxicity in rabbit, cutaneous. The conditions noted are these: in vivo, topical or ocular, read-out: NOEL (No Observable Effect Level).
Series [4] concerns mice. Description: Chronic toxicity in mice, up to 270 days. In kind it is in vivo. The conditions noted are these: tested up to 270 days on mice.

One may read the LD50 as the dose expected to kill half of the subjects tested. For `Cc1cc2nc3c4ccccc4n(CCN(C)C)c3nc2cc1C` [B-220], in series [1] (Figure 1, 6 mg/animal daily, clinical score scale 0-5, versus negative control), the “reduces the CNS symptoms” value is reported as 2/3. Also, the onset is delayed is on record as about 2 days in series [1] (6 mg/animal) and about 4 days in series [1] (12 mg/animal). The figures for the recovery starts earlier in series [1] (6 mg/animal) and in series [1] (12 mg/animal) were about 2 days and about 3 days, respectively. For the same molecule, the NOAEL was 12.5 mg/kg in series [2] (intravenous, read-out: NOEL (No Observable Effect Level)) and 200 mg/kg in series [3]. Further, the values for the LD50 in series [2] (iv) and in series [2] (po) were over 100 mg/kg and over 800 mg/kg, respectively. The chronic toxicity entry in series [4] is “has not induced toxicity”.
